# Experimental data published in ChEMBL document CHEMBL3769350, “Synthesis and biological evaluation of piperazine group-linked bivalent -carbolines as potential antitumor agents” (Medchemcomm, 2015).
# Active and inactive are the calls of the source. No cut-off for these calls is given here.
# How the values were obtained:
# [1] = test system: MCF7; experiment: Cytotoxicity against human MCF7 cells by MTT assay; assay type: functional, cell-based
# [2] = test system: HepG2; experiment: Cytotoxicity against human HepG2 cells by MTT assay; assay type: functional, cell-based
# [3] = test system: CWR22R; experiment: Cytotoxicity against human 22Rv1 cells by MTT assay; assay type: functional, cell-based
# [4] = test system: HT-29; experiment: Cytotoxicity against human HT-29 cells by MTT assay; assay type: functional, cell-based
# [5] = test system: 769-P; experiment: Cytotoxicity against human 769-P cells by MTT assay; assay type: functional, cell-based
# [6] = test system: A-375; experiment: Cytotoxicity against human A375 cells by MTT assay; assay type: functional, cell-based
# [7] = Cytotoxicity against human SKOV3 cells by MTT assay; assay type: functional, cell-based; conditions: SK-OV-3
# [8] = Cytotoxicity against human ECA109 cells by MTT assay; assay type: functional, cell-based; conditions: ECa-109
# [9] = Cytotoxicity against human BGC823 cells by MTT assay; assay type: functional, cell-based; conditions: BGC-823
# [10] = Cytotoxicity against mouse LLC cells by MTT assay; assay type: functional, cell-based; conditions: Lewis lung carcinoma
# [11] = test system: Chorioallantoic membrane; experiment: Antiangiogenic activity in chicken chorioallantoic membrane at 50 to 200 uM after 48 hrs by microscopic analysis; assay type: functional; conditions: Gallus gallus
# [12] = test system: Chorioallantoic membrane; experiment: Antiangiogenic activity in chicken chorioallantoic membrane at 200 uM after 48 hrs by microscopic analysis; assay type: functional; conditions: Gallus gallus
SMILES,IC50 [1],IC50 [2],IC50 [3],IC50 [4],IC50 [5],IC50 [6],IC50 [7],IC50 [8],IC50 [9],IC50 [10],inhibition [11],inhibition [12]
COc1ccc(-c2nc(CN3CCN(Cc4cc5c6ccccc6n(Cc6ccccc6)c5c(-c5ccc(OC)c(OC)c5)n4)CC3)cc3c4ccccc4n(Cc4ccccc4)c23)cc1OC,> 100 µM,> 100 µM,> 100 µM,> 100 µM,> 100 µM,> 100 µM,> 100 µM,> 100 µM,> 100 µM,36.4 µM,,
Cc1nc(CN2CCN(Cc3cc4c5ccccc5n(C)c4c(C)n3)CC2)cc2c3ccccc3n(C)c12,> 100 µM,> 100 µM,86.3 µM,> 100 µM,> 100 µM,> 100 µM,31 µM,> 100 µM,78.5 µM,61.8 µM,,
COc1ccc(-c2nc(CN3CCN(Cc4cc5c6ccccc6n(Cc6ccccc6)c5c(-c5ccc(OC)cc5)n4)CC3)cc3c4ccccc4n(Cc4ccccc4)c23)cc1,> 100 µM,> 100 µM,> 100 µM,> 100 µM,> 100 µM,> 100 µM,> 100 µM,> 100 µM,> 100 µM,40.4 µM,,
CCn1c2ccccc2c2cc(CN3CCN(Cc4cc5c6ccccc6n(CC)c5c(-c5ccccc5)n4)CC3)nc(-c3ccccc3)c21,> 100 µM,> 100 µM,24.9 µM,17.6 µM,29.6 µM,9.92 µM,19.8 µM,> 100 µM,38.8 µM,14 µM,,
COc1ccc(-c2nc(CN3CCN(Cc4cc5c6ccccc6n(CCCc6ccccc6)c5c(-c5ccc(OC)c(OC)c5)n4)CC3)cc3c4ccccc4n(CCCc4ccccc4)c23)cc1OC,> 100 µM,> 100 µM,> 100 µM,> 100 µM,> 100 µM,> 100 µM,> 100 µM,> 100 µM,> 100 µM,> 100 µM,,
CCn1c2ccccc2c2cc(CN3CCN(Cc4cc5c6ccccc6n(CC)c5c(-c5ccc(OC)c(OC)c5)n4)CC3)nc(-c3ccc(OC)c(OC)c3)c21,27.3 µM,27.2 µM,42.3 µM,34.3 µM,61.1 µM,37.3 µM,32.7 µM,68.5 µM,19.8 µM,9.68 µM,,
COc1ccc(-c2nc(CN3CCN(Cc4cc5c6ccccc6n(C)c5c(-c5ccc(OC)cc5)n4)CC3)cc3c4ccccc4n(C)c23)cc1,> 100 µM,55 µM,47.8 µM,29 µM,> 100 µM,45.7 µM,57.8 µM,68.5 µM,56.3 µM,69 µM,,
CCCCn1c2ccccc2c2cc(CN3CCN(Cc4cc5c6ccccc6n(CCCC)c5c(-c5cc(OC)c(OC)c(OC)c5)n4)CC3)nc(-c3cc(OC)c(OC)c(OC)c3)c21,12.5 µM,7.26 µM,6.82 µM,13.5 µM,15.6 µM,36 µM,7.11 µM,18.3 µM,26.6 µM,19.8 µM,,
Fc1ccc(Cn2c3ccccc3c3cc(CN4CCN(Cc5cc6c7ccccc7n(Cc7ccc(F)cc7)c6cn5)CC4)ncc32)cc1,72.8 µM,76.3 µM,60.6 µM,18.3 µM,29 µM,46 µM,8.43 µM,24.7 µM,85.6 µM,15.9 µM,,
Cn1c2ccccc2c2cc(CN3CCN(Cc4cc5c6ccccc6n(C)c5c(-c5ccccc5)n4)CC3)nc(-c3ccccc3)c21,> 100 µM,> 100 µM,54.3 µM,> 100 µM,> 100 µM,40.9 µM,> 100 µM,> 100 µM,> 100 µM,34.5 µM,,
Cc1nc(CN2CCN(Cc3cc4c5ccccc5n(Cc5cccc(Cl)c5)c4c(C)n3)CC2)cc2c3ccccc3n(Cc3cccc(Cl)c3)c12,43.7 µM,38.1 µM,40.8 µM,25.2 µM,45.8 µM,32.4 µM,51.4 µM,57.6 µM,40.8 µM,12 µM,,
Cc1nc(CN2CCN(Cc3cc4c5ccccc5n(CC(C)C)c4c(C)n3)CC2)cc2c3ccccc3n(CC(C)C)c12,7.16 µM,9.66 µM,12.5 µM,11.3 µM,12.7 µM,13 µM,16 µM,14.3 µM,10.8 µM,7.68 µM,Active,
COc1cc(-c2nc(CN3CCN(Cc4cc5c6ccccc6n(CCCc6ccccc6)c5c(-c5cc(OC)c(OC)c(OC)c5)n4)CC3)cc3c4ccccc4n(CCCc4ccccc4)c23)cc(OC)c1OC,> 100 µM,> 100 µM,> 100 µM,> 100 µM,> 100 µM,> 100 µM,> 100 µM,> 100 µM,> 100 µM,> 100 µM,,
CCCCn1c2ccccc2c2cc(CN3CCN(Cc4cc5c6ccccc6n(CCCC)c5c(-c5ccc(OC)c(OC)c5)n4)CC3)nc(-c3ccc(OC)c(OC)c3)c21,14.5 µM,17 µM,19.5 µM,11.8 µM,10 µM,15.5 µM,25.7 µM,32.4 µM,6.21 µM,9.78 µM,,
COc1cc(-c2nc(CN3CCN(Cc4cc5c6ccccc6n(C)c5c(-c5cc(OC)c(OC)c(OC)c5)n4)CC3)cc3c4ccccc4n(C)c23)cc(OC)c1OC,65.6 µM,> 100 µM,> 100 µM,> 100 µM,> 100 µM,64.2 µM,18.9 µM,26.3 µM,45.3 µM,39 µM,,
CCn1c2ccccc2c2cc(CN3CCN(Cc4cc5c6ccccc6n(CC)c5cn4)CC3)ncc21,82.8 µM,> 100 µM,52.3 µM,32.8 µM,64.3 µM,49.9 µM,24.4 µM,> 100 µM,68.6 µM,13.8 µM,,
COc1cc(-c2nc(CN3CCN(Cc4cc5c([nH]c6ccccc65)c(-c5cc(OC)c(OC)c(OC)c5)n4)CC3)cc3c2[nH]c2ccccc23)cc(OC)c1OC,> 100 µM,> 100 µM,> 100 µM,> 100 µM,> 100 µM,> 100 µM,> 100 µM,> 100 µM,> 100 µM,> 100 µM,,
COc1ccc(-c2nc(CN3CCN(Cc4cc5c6ccccc6n(CCCc6ccccc6)c5c(-c5ccc(OC)cc5)n4)CC3)cc3c4ccccc4n(CCCc4ccccc4)c23)cc1,> 100 µM,> 100 µM,> 100 µM,> 100 µM,> 100 µM,> 100 µM,> 100 µM,> 100 µM,> 100 µM,> 100 µM,,
COc1ccc(/C=C\c2cc(OC)c(OC)c(OC)c2)cc1OP(=O)(O)O,,,,,,,,,,,,Active
c1ccc(Cn2c3ccccc3c3cc(CN4CCN(Cc5cc6c7ccccc7n(Cc7ccccc7)c6c(-c6ccccc6)n5)CC4)nc(-c4ccccc4)c32)cc1,> 100 µM,> 100 µM,> 100 µM,> 100 µM,> 100 µM,> 100 µM,> 100 µM,> 100 µM,> 100 µM,> 100 µM,,
c1ccc(CCCn2c3ccccc3c3cc(CN4CCN(Cc5cc6c7ccccc7n(CCCc7ccccc7)c6cn5)CC4)ncc32)cc1,7.62 µM,8.95 µM,5.32 µM,18.7 µM,3.02 µM,8.35 µM,5.51 µM,24.6 µM,7.62 µM,5.15 µM,,
CCCCn1c2ccccc2c2cc(CN3CCN(Cc4cc5c6ccccc6n(CCCC)c5cn4)CC3)ncc21,29.2 µM,15.2 µM,43.9 µM,17.1 µM,38.2 µM,16.8 µM,11.3 µM,26.4 µM,9.52 µM,2.36 µM,,
CCCCn1c2ccccc2c2cc(CN3CCN(Cc4cc5c6ccccc6n(CCCC)c5c(-c5ccc(OC)cc5)n4)CC3)nc(-c3ccc(OC)cc3)c21,20.6 µM,25.7 µM,27.6 µM,11.8 µM,16.6 µM,19.6 µM,24.6 µM,24.7 µM,28.8 µM,27.4 µM,,
c1ccc(CCCn2c3ccccc3c3cc(CN4CCN(Cc5cc6c7ccccc7n(CCCc7ccccc7)c6c(-c6ccccc6)n5)CC4)nc(-c4ccccc4)c32)cc1,> 100 µM,> 100 µM,> 100 µM,> 100 µM,> 100 µM,> 100 µM,> 100 µM,> 100 µM,> 100 µM,> 100 µM,,
c1ccc(Cn2c3ccccc3c3cc(CN4CCN(Cc5cc6c7ccccc7n(Cc7ccccc7)c6cn5)CC4)ncc32)cc1,> 100 µM,65.4 µM,> 100 µM,36.8 µM,> 100 µM,> 100 µM,46.5 µM,> 100 µM,> 100 µM,79.8 µM,,
COc1ccc(-c2nc(CN3CCN(Cc4cc5c([nH]c6ccccc65)c(-c5ccc(OC)cc5)n4)CC3)cc3c2[nH]c2ccccc23)cc1,> 100 µM,> 100 µM,> 100 µM,> 100 µM,> 100 µM,> 100 µM,> 100 µM,> 100 µM,> 100 µM,> 100 µM,,
